From US11028051B2, “Tetrahydroquinoline-based bromodomain inhibitors” (St. Jude Children's Research Hospital, priority 2016, dated 2021)
Read-outs that look alike come from different tables or passages of the source.

Columns and labels:
BRD2-BD1 [1] = biological target: T1, BRD2-BD1 (Homo sapiens (Human), UniProt P25440); test: competitive TR-FRET assay, BET-BD with acetylated peptide ligand; assay type: binding; conditions: for IC50: Table 2, inhibitor potency by TR-FRET; for EC50: Table 4, read-out: EC50 (μM) BRD2(1)
Description: (§1) Inhibitor potency was determined using a competitive TR-FRET assay as detailed herein, measuring interaction of the respective BET-BD with an acetylated peptide ligand (Table 2).
Target sequence in this assay (P25440 74-180): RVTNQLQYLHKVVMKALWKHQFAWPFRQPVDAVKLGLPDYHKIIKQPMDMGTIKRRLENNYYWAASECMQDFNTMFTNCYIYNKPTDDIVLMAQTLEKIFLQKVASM

BRD2-BD2 [2] = biological target: T2, BRD2-BD2 (Homo sapiens (Human), UniProt P25440); test: as above; assay type: binding; conditions: for IC50: Table 2, inhibitor potency by TR-FRET; for BD1/BD2: Table 2, ratio BRD2-BD1/BRD2-BD2; for [2(1)/2(2)]: Table 4, ratio of EC50; for EC50: Table 4, read-out: EC50 (μM) BRD2(2)
Description: as §1
Target sequence in this assay (P25440 344-453): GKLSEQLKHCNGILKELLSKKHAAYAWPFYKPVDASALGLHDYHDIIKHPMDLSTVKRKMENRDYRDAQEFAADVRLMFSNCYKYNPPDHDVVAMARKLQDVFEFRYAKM

BRD3-BD1 = BRD3-BD1 (Homo sapiens (Human), UniProt Q15059); test: as above; assay type: binding; conditions: for IC50: Table 2, inhibitor potency by TR-FRET; for EC50: Table 4, read-out: BRD3(1)
Description: as §1

BRD4-BD1 = BRD4-BD1 (Homo sapiens (Human), UniProt O60885); test: as above; assay type: binding; conditions: for IC50: Table 2, inhibitor potency by TR-FRET; for EC50: Table 4, read-out: EC50 (μM) BRD4(1)
Description: as §1

BRD4-BD2 = BRD4-BD2 (Homo sapiens (Human), UniProt O60885); test: as above; assay type: binding; conditions: for IC50: Table 2, inhibitor potency by TR-FRET; for 4(1)/4(2): Table 4, ratio of EC50; for EC50: Table 4, read-out: EC50 (μM) BRD4(2)
Description: as §1

BRD2-BD1 [3] = biological target: T1, BRD2-BD1; test: isothermal titration calorimetry analysis of binding; conditions: ITC; for ΔG / ΔH / −TΔS: BRD2-BD1; for Kd: BRD2-BD1, average of 3 experiments, read-out: average Kd
Description: (§2) b. Isothermal Titration Calorimetry Analysis of Binding to Brd2-BD1 and Brd2-BD2
(§3) Binding of compounds to BRD2 was monitored using an ITC200 (Microcal, Piscataway, N.J.). Either Brd2.1 (74-194) or Brd2.2 (348-455) was dialyzed overnight into a solution containing 50 mM HEPES, pH 7.0 and 150 mM NaCl at 15° C. Enzyme concentrations were determined after dialysis by absorbance at 280 nm using a molar extinction coefficient (ε280) of 25,565 M^−1 cm^−1 (2.1) or 16,055 M^−1 cm^−1 (2.2). Enzyme was diluted in dialysis buffer and 39.6 μL was loaded into the syringe. Compounds were dissolved in the same dialysis buffer and loaded in the cell to a volume of 204 μL. Injections were carried out by serial injections of enzyme; first, 1 injection of 1 μL, followed by 19 incremental injections of 2 μL, at 120 second intervals. Data from the first injection was excluded, due to pre-equilibration mixing between the contents of cell and syringe at the syringe tip. Peak areas were integrated, normalized, and then fitted by non-linear regression using the independent sites model in Origin™ (version 2.3.6, Microcal, Piscataway, N.J.).
Target sequence in this assay (P25440 74-194): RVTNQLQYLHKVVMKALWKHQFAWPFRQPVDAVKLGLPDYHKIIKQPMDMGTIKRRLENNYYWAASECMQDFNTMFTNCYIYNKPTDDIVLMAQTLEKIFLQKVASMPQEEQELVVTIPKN

BRD2-BD2 [4] = biological target: T2, BRD2-BD2; test: as above; conditions: ITC; for ΔG / ΔH / −TΔS: BRD2-BD2; for Kd: BRD2-BD2, average of 3 experiments, read-out: average Kd
Description: as §2, §3
Target sequence in this assay (P25440 348-455): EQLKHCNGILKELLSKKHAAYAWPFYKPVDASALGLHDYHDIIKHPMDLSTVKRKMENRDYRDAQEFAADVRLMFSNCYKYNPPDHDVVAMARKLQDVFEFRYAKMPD

BRD2-BD2 [5] = test: as above; conditions: ITC Kd BRD2-BD1 / BRD2-BD2
Description: as §2, §3

[6] = system: c-Myc oncogene expression; conditions: previous study with BD2-selective BET inhibitor; cited from earlier work
BRDT = BRDT (Homo sapiens, UniProt Q58F21); test: competitive TR-FRET assay, BET-BD with acetylated peptide ligand; assay type: binding; conditions: for IC50: Table 2, inhibitor potency by TR-FRET; for EC50: Table 4, read-out: BRDT EC50
Description: as §1

HDMB03 cells = test: cell viability, CellTiter-Glo; assay type: cell-based, human; conditions: Homo sapiens
Description: Human G3 medulloblastoma or mouse SHH medulloblastoma cells were grown as neurospheres in supplemented neurobasal medium, as previously described (Kawauchi et al., 2012.)
(§4) After 7 days of treatment, an equal volume of CellTiter-Glo reagent (G7572, Promega) was added and the luminescence signal was measured using an automated Envision plate reader (Perkin-Elmer). Luminescence data were normalized by log10 transformation prior to calculating the percent inhibition using the following equation:
(§5) 100*(negative control mean −compound value)/(negative control mean −positive control mean).
High-throughput assay data were analyzed using Robust Interpretation of Screening Experiments (RISE) application written in Pipeline Pilot (Accelrys, v. 8.5) and the R program (R Development Core Team).
Dose-response curves were calculated by regressing the median percent inhibition obtained over triplicate experiments to log 10-transformed concentrations. Non-linear regression was then performed using the R drc package with the four parameter log-logistic function (LL2.4) (Ritz and Streibig, 2009). Curves were fit under three different constraints: (1) all parameters free, (2) high response fixed to 100, (3) low response fixed to 0; and the best fit from these three nested models was selected using the anova.drc function.

[7] = system: c-Myc expression in HDMB03 cells; test: c-Myc expression inhibition, high content microscopy (HCM); assay type: cell-based, human; conditions: Homo sapiens
Loucy = test: anti-proliferative activity; assay type: cell-based; conditions: Table 5
Description: as §4, §5

NALM-16 = test: anti-proliferative activity; assay type: cell-based; conditions: NALM16; Table 5
Description: as §4, §5

SEM cells = test: anti-proliferative activity; assay type: cell-based; conditions: Table 5
Description: as §4, §5

[8] = system: neural crest tumor cell lines; test: activity versus neural crest tumor cell lines; assay type: cell-based; conditions: several neural crest tumor cell lines; read-out: IC50 ranges
BRD2(1) = BRD2(1) (Homo sapiens (Human), UniProt P25440); test: BROMOscan KD determination; assay type: binding; conditions: Table 10
Excerpt: (§6) DiscoverX® can screen compounds against all ˜42 bromodomains (a service called BROMOscan) and perform follow-up KD determination. This service is considered the industrial standard for bromodomain inhibitor comparisons. […] Dots are symbolic of inhibition of the compound at this concentration; the larger the size of the dot, the greater the activity of the compound. […] Though these compounds are selective for the BET family, the selectivity within the BET family is poor. The results of a competitive binding experiment between compounds 19 (left), 41 (center), and 56 (right) (at a single concentration, 1 μM) and a control for each of the bromodomains are shown in FIG. 5.

BRD2(2) = BRD2(2) (Homo sapiens (Human), UniProt P25440); test: BROMOscan KD determination; assay type: binding
Excerpt: as §6

BRDT(1) = BRDT(1) (Homo sapiens (Human), UniProt Q58F21); test: BROMOscan KD determination; assay type: binding; conditions: Table 10
Excerpt: as §6

BRDT(2) = BRDT(2) (Homo sapiens (Human), UniProt Q58F21); test: BROMOscan KD determination; assay type: binding
Excerpt: as §6

BRD3(1) = BRD3(1) (Homo sapiens (Human), UniProt Q15059); test: BROMOscan KD determination; assay type: binding; conditions: Table 10
Excerpt: (§7) DiscoverX® can screen compounds against all ˜42 bromodomains (a service called BROMOscan) and perform follow-up KD determination. This service is considered the industrial standard for bromodomain inhibitor comparisons.

BRD3(2) = BRD3(2) (Homo sapiens (Human), UniProt Q15059); test: BROMOscan KD determination; assay type: binding
Excerpt: as §7

BRD4(1) = BRD4(1) (Homo sapiens (Human), UniProt O60885); test: BROMOscan KD determination; assay type: binding; conditions: Table 10
Excerpt: as §7

BRD4(2) = BRD4(2) (Homo sapiens (Human), UniProt O60885); test: BROMOscan KD determination; assay type: binding
Excerpt: as §7

[9] = HD-MB03, Table 5, read-out: EC50 (μM) HDMB03
[10] = HD-MB03, Table 5, read-out: EC50 (μM) Myc-inhibition

BRD3-BD1, sequence (Q15059 34-140): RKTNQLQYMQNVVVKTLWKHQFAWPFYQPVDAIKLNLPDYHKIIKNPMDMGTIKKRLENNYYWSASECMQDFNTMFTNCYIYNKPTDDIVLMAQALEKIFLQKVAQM
BRD3(2), sequence (Q15059 306-415): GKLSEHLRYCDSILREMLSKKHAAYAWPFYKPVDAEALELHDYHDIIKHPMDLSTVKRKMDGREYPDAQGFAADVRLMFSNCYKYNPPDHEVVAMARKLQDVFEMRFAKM
BRD2(2), sequence (P25440 344-453): as the sequence (P25440 344-453) above
BRD3(1), sequence (Q15059 34-140): as the sequence (Q15059 34-140) above
BRD2(1), sequence (P25440 74-180): as the sequence (P25440 74-180) above

SMILES | EC50 (BRD2-BD1 [1]) [µM] | [2(1)/2(2)] (BRD2-BD2 [2]) | EC50 (BRD2-BD2 [2]) [µM] | EC50 (BRD3-BD1) [nM] | EC50 (BRD4-BD1) [µM] | IC50 (BRD2-BD1 [1]) [nM] | IC50 (BRD2-BD2 [2]) [nM] | BD1/BD2 (BRD2-BD2 [2]) | IC50 (BRD3-BD1) [nM] | IC50 (BRD4-BD1) [nM] | IC50 (BRD4-BD2) [nM] | ΔG (BRD2-BD1 [3]) [kcal/mol] | ΔH (BRD2-BD1 [3]) [kcal/mol] | −TΔS (BRD2-BD1 [3]) [kcal/mol] | Kd (BRD2-BD1 [3]) [nM] | ΔG (BRD2-BD2 [4]) [kcal/mol] | ΔH (BRD2-BD2 [4]) [kcal/mol] | −TΔS (BRD2-BD2 [4]) [kcal/mol] | Kd (BRD2-BD2 [4]) [nM] | Selectivity (2-1/2-2) (BRD2-BD2 [5]) | also measured
CC(=O)N1c2ccc(-c3cccs3)cc2[C@H](NC(=O)OC(C)C)C[C@@H]1C [compound 52] | – | – | – | – | – | 1680 | 340 | 5 | 1200 | > 77800 | 3000 | -9.52 | -8.27 | -1.25 | 61.3 | -10.12 | -7.18 | -2.94 | 20.9 | 2.9 | –
COc1cc(OC)c2c(=O)[nH]c(-c3cc(C)c(OCCO)c(C)c3)nc2c1 [RVX-208] | – | – | – | – | – | – | – | – | – | – | – | – | – | – | – | – | – | – | – | – | c-Myc oncogene expression [6]: did not inhibit c-Myc oncogene expression
CC(=O)N1c2ccc(-c3cc[nH]c3)cc2[C@H](NC(=O)OC(C)C)C[C@@H]1C [compound 55] | – | – | – | – | – | 1710 | 370 | 5 | 260 | 1300 | 1200 | -9.28 | -7.33 | -1.95 | 91.5 | -10.15 | -7.01 | -3.32 | 19.9 | 4.6 | IC50 (BRDT): 49000 nM
CC(=O)N1c2ccc(-c3ccoc3)cc2[C@H](NC(=O)OC(C)C)C[C@@H]1C [compound 51] | – | – | – | – | – | 7230 | 1420 | 5 | 2300 | 5800 | 4300 | -8.96 | -9.90 | 0.94 | 162 | -8.61 | -6.31 | -2.29 | 300 | 0.5 | IC50 (BRDT): 23000 nM; EC50 (HDMB03 cells; HD-MB03, HDMB03 cells, read-out: cell viability EC50): 3.3 µM; EC50 ([7]; HD-MB03, HDMB03 cells, read-out: c-Myc expression EC50): 1 µM
CC(=O)N1c2ccc(-c3ccc[nH]3)cc2[C@H](NC(=O)OC(C)C)C[C@@H]1C [compound 54] | – | – | – | – | – | 1550 | > 48600 | – | 5600 | 1700 | 8500 | -9.08 | -6.90 | -2.18 | 131 | -9.82 | -6.89 | -2.92 | 35.9 | 3.7 | –
CC(=O)N1c2ccc(-c3ccsc3)cc2[C@H](NC(=O)OC(C)C)C[C@@H]1C [compound 53] | – | – | – | – | – | 7210 | 970 | 7 | 3100 | 14000 | 4600 | -9.43 | -7.69 | -1.74 | 71.7 | -10.25 | -6.92 | -3.33 | 17.1 | 4.2 | –
COc1ccccc1N[C@@H]1C[C@H](C)N(C(C)=O)c2ccc(-c3cccc(NC(C)=O)c3)cc21 [compound 40] | 4.2 | 75 | 0.06 | 2000 | 6 | – | – | – | – | – | – | – | – | – | – | – | – | – | – | – | 4(1)/4(2) (BRD4-BD2): 52.9; EC50 (BRD4-BD2): 0.1 µM; EC50 (BRDT): 9100 nM; EC50 (HDMB03 cells; [9]): 17.6 µM; EC50 (Loucy): 0.32 µM; EC50 (NALM-16): 0.26 µM; EC50 (SEM cells): 0.02 µM; EC50 [7, 10]: 0.49 µM; IC50 [8]: 50 to 200 nM
CC(=O)Nc1cccc(-c2ccc3c(c2)[C@H](Nc2ccccc2OC(F)(F)F)C[C@H](C)N3C(C)=O)c1 [compound 19] | 8.3 | 52 | 0.16 | 5400 | 8.3 | – | – | – | – | – | – | – | – | – | – | – | – | – | – | – | 4(1)/4(2) (BRD4-BD2): 59; EC50 (BRD4-BD2): 0.14 µM; EC50 (BRDT): 10000 nM; EC50 (HDMB03 cells; [9]): 1.14 µM; EC50 (NALM-16): > 1.7 µM; EC50 (SEM cells): 0.04 µM; EC50 [7, 10]: 0.11 µM; Kd (BRD2(1)): 170 nM; [2(1)/2(2)] (BRD2(2); BROMOscan KD ratio): 48.6; Kd (BRD2(2); BROMOscan, Table 10): 3.5 nM; Kd (BRDT(1)): 72 nM; T(1)/T(2) (BRDT(2); BROMOscan KD ratio): 6.5; Kd (BRDT(2); BROMOscan, Table 10): 11 nM; Kd (BRD3(1)): 110 nM; 3(1)/3(2) (BRD3(2); BROMOscan KD ratio): 84.6; Kd (BRD3(2); BROMOscan, Table 10): 1.3 nM; Kd (BRD4(1)): 99 nM; 4(1)/4(2) (BRD4(2); BROMOscan KD ratio): 58.2; Kd (BRD4(2); BROMOscan, Table 10): 1.7 nM
CC(=O)Nc1cccc(-c2ccc3c(c2)[C@H](Nc2ccc(Cl)cc2)C[C@H](C)N3C(C)=O)c1 [compound 10] | 2.6 | 33 | 0.08 | 1900 | 3.1 | – | – | – | – | – | – | – | – | – | – | – | – | – | – | – | 4(1)/4(2) (BRD4-BD2): 15; EC50 (BRD4-BD2): 0.21 µM; EC50 (BRDT): 3700 nM; EC50 (HDMB03 cells; [9]): 1.18 µM; EC50 (NALM-16): 0.33 µM; EC50 [7, 10]: 0.68 µM
